From patent publication US20030232999A1, “POLYMETHINE COMPOUND AND NEAR-INFRARED ABSORBING MATERIAL COMPRISING SAME” (priority 2002, published 2003) come the findings set out here.

This data set can be described thus: Solubility in solvents (stated in words). To be noted: statement in words. The class given is physicochemical.

Regarding `CCN1/C(=C\C=C2/CCCC(/C=C/C3=[N+](CC)c4ccc(OC)cc4C3(C)C)=C2Cl)C(C)(C)c2cc(OC)ccc21.[I-]` [compound B], the solubility in solvents result was “low”. In the case of `COCCN1/C(=C\C=C2/CCCC(/C=C/C3=[N+](CCOC)c4ccccc4C3(C)C)=C2Cl)C(C)(C)c2ccccc21` [compound A] it was “low”.
